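These data come from cells grown in 96-well plates and exposed to compound for 48 hours at five concentrations. GI50 = concentration required for 50% inhibition of growth.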 The source made the active and inactive calls. Rule as the data show it: active = GI50 up to about 1.1 µM and inactive = higher.
Legend:
Test in all cases: NCI tumour cell line growth inhibition, 48 h
HCC 2998 = test system: HCC 2998
M19-MEL = test system: M19-MEL
HL-60 = test system: HL-60
SW-620 = test system: SW-620
RXF 631 = test system: RXF 631
HOP-18 = test system: HOP-18
Malme-3M = test system: Malme-3M
RPMI-8226 = test system: RPMI-8226
M14 = test system: M14
U-251 = test system: U-251
OVCAR-4 = test system: OVCAR-4
LOX IMVI = test system: LOX IMVI
DLD-1 = test system: DLD-1
SK-MEL-28 = test system: SK-MEL-28
HT-29 = test system: HT-29
HOP-62 = test system: HOP-62
SK-MEL-5 = test system: SK-MEL-5
SK-MEL-2 = test system: SK-MEL-2
SNB-19 = test system: SNB-19
A549 = test system: A549
EKVX = test system: EKVX
SN12C = test system: SN12C
NCI-H460 = test system: NCI-H460
MOLT-4 = test system: MOLT-4
IGROV-1 = test system: IGROV-1
SF-268 = test system: SF-268
OVCAR-3 = test system: OVCAR-3
A498 = test system: A498
OVCAR-5 = test system: OVCAR-5
XF498 = test system: XF498
SF-295 = test system: SF-295
SF-539 = test system: SF-539
CCRF-CEM = test system: CCRF-CEM
KM12 = test system: KM12
NCI-H522 = test system: NCI-H522
DMS-114 = test system: DMS-114
SNB-75 = test system: SNB-75
LXFL 529 = test system: LXFL 529
CAKI-1 = test system: CAKI-1
ACHN = test system: ACHN
UACC-257 = test system: UACC-257
K562 = test system: K562
UO-31 = test system: UO-31
RXF 393 = test system: RXF 393
COLO 205 = test system: COLO 205
HCT-15 = test system: HCT-15
TK-10 = test system: TK-10
OVCAR-8 = test system: OVCAR-8
SK-OV-3 = test system: SK-OV-3
UACC-62 = test system: UACC-62
HOP-92 = test system: HOP-92
KM-20L2 = test system: KM-20L2
786-0 = test system: 786-0
NCI-H23 = test system: NCI-H23
DMS-273 = test system: DMS-273

Compound: O=S(O)CCCCSSCc1ccccc1CSSCCCCS(=O)O
- GI50 (HCC 2998): 19 µM (inactive)
- GI50 (M19-MEL): 4.65 µM (inactive)
- GI50 (HL-60): 5.69 µM (inactive)
- GI50 (SW-620): 25.8 µM (inactive)
- GI50 (RXF 631): 23.1 µM (inactive)
- GI50 (HOP-18): 14.7 µM (inactive)
- GI50 (Malme-3M): 8.91 µM (inactive)
- GI50 (RPMI-8226): 10.8 µM (inactive)
- GI50 (M14): 10.3 µM (inactive)
- GI50 (U-251): 46.7 µM (inactive)
- GI50 (OVCAR-4): 4.21 µM (inactive)
- GI50 (LOX IMVI): 10.5 µM (inactive)
- GI50 (DLD-1): 24.6 µM (inactive)
- GI50 (SK-MEL-28): 13.1 µM (inactive)
- GI50 (HT-29): 8.34 µM (inactive)
- GI50 (HOP-62): 35.3 µM (inactive)
- GI50 (SK-MEL-5): 8.79 µM (inactive)
- GI50 (SK-MEL-2): 35.2 µM (inactive)
- GI50 (SNB-19): 56.2 µM (inactive)
- GI50 (A549): 28.8 µM (inactive)
- GI50 (EKVX): 22.2 µM (inactive)
- GI50 (SN12C): 26 µM (inactive)
- GI50 (NCI-H460): 51.9 µM (inactive)
- GI50 (MOLT-4): 0.904 µM (active)
- GI50 (IGROV-1): 49.4 µM (inactive)
- GI50 (SF-268): 12.5 µM (inactive)
- GI50 (OVCAR-3): 10.5 µM (inactive)
- GI50 (A498): 40.7 µM (inactive)
- GI50 (OVCAR-5): 95.1 µM (inactive)
- GI50 (XF498): 12 µM (inactive)
- GI50 (SF-295): 17 µM (inactive)
- GI50 (SF-539): 15.1 µM (inactive)
- GI50 (CCRF-CEM): 3.88 µM (inactive)
- GI50 (KM12): 19 µM (inactive)
- GI50 (NCI-H522): 4.43 µM (inactive)
- GI50 (DMS-114): 14.9 µM (inactive)
- GI50 (SNB-75): 9.16 µM (inactive)
- GI50 (LXFL 529): 11.4 µM (inactive)
- GI50 (CAKI-1): 25.8 µM (inactive)
- GI50 (ACHN): 18.7 µM (inactive)
- GI50 (UACC-257): 3.87 µM (inactive)
- GI50 (K562): 16.6 µM (inactive)
- GI50 (UO-31): 11.1 µM (inactive)
- GI50 (RXF 393): 7.94 µM (inactive)
- GI50 (COLO 205): 15.5 µM (inactive)
- GI50 (HCT-15): 19.1 µM
- GI50 (TK-10): 43.4 µM (inactive)
- GI50 (OVCAR-8): 17.1 µM (inactive)
- GI50 (SK-OV-3): > 100 µM (inactive)
- GI50 (UACC-62): 10.5 µM (inactive)
- GI50 (HOP-92): 21.9 µM (inactive)
- GI50 (KM-20L2): 61 µM (inactive)
- GI50 (786-0): > 100 µM (inactive)
- GI50 (NCI-H23): 18 µM (inactive)
- GI50 (DMS-273): 21.1 µM (inactive)

From ChEMBL document CHEMBL1201862, “PubChem BioAssay data set” (2004)
